Tests used:
[1] = tested on: PCa cell lines (PC3, LNCaP, 22Rv1, DU145); test: Cytokine profiling of prostate cancer cell culture supernatants (Luminex 200); format: cell-based; conditions: for IFN-γ secretion: DU145, 22Rv1, and PC3 cell lines; for secretion of immune-activating cytokines such as IL-2 / secretion of pro-tumorigenic and immunosuppressive cytokines such as VEGF, M-CSF, IL-8, CXCL10 and GDF-15: PCa cell lines, 24 h
Procedure: GDF-15 is implicated in the immunosuppressive prostate cancer TME and the progression of benign prostate hyperplasia to adenocarcinoma.
The medium was collected 24 hours after treatment and stored at −80° C. until readout. Samples were shipped to Brown University to run them in biological duplicate on a Luminex 200 Instrument (R&D LX200-XPON-RUO), which captures cytokines on magnetic antibody-coated beads and measures cytokine levels using a system based on the principles of flow cytometry (see https:/www.luminexcorp.com/luminex-100200/#overviewfor more information). A custom […] panel was split into 34-plex and 18-plex assays (R&D LXSAHM) and was run on the Luminex 200 instrument according to the manufacturer's protocol.
(§1) We conducted cell viability assays to investigate the effect of Enza and Daro on PC cells (LNCap, 22Rv1 [ARv7 mutation], DU145, PC3 [AR-]) and NK-92 cells. We performed co-culture experiments with PC and NK cells in a 1:1 ratio and analyzed immune cell-mediated tumor cell killing (ImageXpress Confocal HT). Cytokine profiling (Luminex 200) of culture supernatants was performed following treatment with ARi−/+ and anti-IFN-γ antibodies. In vivo studies were performed in NCr Nude mice harboring subcutaneous PC tumors treated orally with Daro (50 mg/kg/bid) and Enza (30 mg/kg/bid) for 4 weeks.

PC3 = test: Co-culture of GFP-expressing PC3 with patient-derived NK cells; format: cell-based, human; conditions: GFP PC3, 1:1, 24 h; monalizumab in combination with enza and daro
Excerpt: (§2) To validate an additive effect of ARi and monalizumab enhancing NK cell cytotoxicity, we performed a co-culture assay with GFP-labeled PCa cell lines (including ARi-sensitive LNCaP and ARi-resistant PC3) and patient-derived NK cells. The NK cells were negatively selected from whole blood from patients with metastatic prostate cancer before initiation of androgen deprivation therapy. The addition of enzalutamide or darolutamide enhanced the cytotoxicity of NK cells, and the combination of ARi with monalizumab potentiated immune killing (FIG. 15C-D).
(§3) Prostate cancer cell lines were dyed with the blue CMAC live-cell dye (Thermo Fisher Scientific #C2110, per manufacturer protocol). Blue-fluorescent cancer cells were plated at a density of 10,000 cells per well of a 48-well plate. NK-92 cells were dyed with green CMFDA (Cayman Chemical Company #19583, per manufacturer protocol). Green-fluorescent NK-92 cells were added to the blue-fluorescent cancer cells at a 1:1 ratio. Enzalutamide (10 μM), darolutamide (20 μM), and 1 μM ethidium homodimer (EthD-1) were added at the same time as the NK cells. After 24 hours of co-culture, images of live cancer cells, live NK cells, and dead cells were taken using a fluorescent microscope. The co-culture experiments were run with internal control conditions and as a single treatment. Normalization was performed after analysis to take baseline death conditions into each experiment run. To optimize the high output of these experiments, a subset of co-cultures were performed using the ImageXpress® Micro Confocal High-Content Imaging. This analysis maintained the experiment conditions, drug concentrations, and the dyeing process. When GFP-labeled tumor cells were used for culture assays, they were added in a 1:1 ratio. Cell adhered over 24 h, and when patient-derived NK cells were added, a control well was trypsinized, and cells resuspended and counted to adjust a 1:1 ratio before treatment addition. The experiments with blocking antibodies were performed using the ImageXpress system. TRAIL blocking ab was purchased from Santa Cruz TRAIL Antibody (RIK-2): sc-56246, and IFN gamma blocking Monoclonal Antibody (NIB42, #6-7318-81) was purchased from Thermo Fisher. The blocking mAb was added when NK cells were combined with tumor cells.
(§4) NK cells were isolated from patients harboring metastatic castration-sensitive prostate cancer using the MojoSort™ Human NK Cell Isolation Kit (#480053). Patients signed informed consent for IRB-approved research protocol number 2055-13, allowing the collection of peripheral blood samples. […] The untouched NK cells (CD56+, CD3−) were collected, and the purity of isolation was determined by flow cytometry using anti-CD56 (BioLegend 362503). […]

[2] = tested on: PC cell lines (LNCap, 22Rv1, DU145, PC3); test: Co-cultures of PC cell lines with NK cells (1:1), immune-mediated PC killing; format: cell-based; conditions: for immune-mediated PC killing effect: Example 2, PC with NK-92 cells and patient-derived NK cells, within 24 hrs
Procedure: as §3
Live cancer cells, NK cells, and dead cells were quantified using FIJI (Fiji Is Just ImageJ) software for images derived from fluorescent co-culture images. Images from the ImageXpress system were quantified using MetaXpress cytoplasmic/nuclear staining software. The percent of dead tumor cells in each well was quantified, and this percentage was normalized by subtracting baseline death from cancer cell-only wells, NK cell-only wells, or both. A two-way ANOVA was used to calculate the interaction effect between drug treatment and NK cells.
In groups with a significant interaction effect, data was further normalized in the cancer cell+NK cells+drug treatment well by subtracting out death in the cancer cell+drug well. A one-way ANOVA and multiple comparison analysis with subsequent t-tests were used to calculate the statistical significance of the difference between this group and the cancer cell+NK cell well. GraphPad Prism Version 9.5.1 was used for statistical analysis.
as §1
We performed ATP-based (CellTiter-Glo) viability assays to investigate the effect of Enzalutamide and Darolutamide on PC cell lines (LNCap, 22Rv1 [ARv7 mutation], DU145, PC3 [AR-]) and NK-92 cells. We performed co-culture experiments with PC and NK cells at a 1:1 ratio throughout 4 h, 6 h, 12 h, 24 h, and 48 h periods. We analyzed immune cell-mediated tumor cell killing in the presence of Enza and Darolutamide (ImageXpress Confocal HT). Western Blotting was performed to evaluate different protein expression levels and their regulation related to sensitivity in mediating immune-mediated cell killing (apoptotic family). […]

LNCaP = test: Co-culture of GFP-expressing LNCaP with patient-derived NK cells; format: cell-based, human; conditions: GFP LNCaP, 1:1, 24 h; monalizumab in combination with enza and daro
Excerpt: as §2, §3, §4

[3] = Example 1, PC + NK-92, within 24 hours
[4] = Example 2, PC + NK-92, within 24 hours, blocking mAbs 10 ug/ml

Compound	IFN-γ secretion [1]	secretion of immune-activating cytokines such as IL-2 [1]	secretion of pro-tumorigenic and immunosuppressive cytokines such as VEGF, M-CSF, IL-8, CXCL10 and GDF-15 [1]	killing of PCa cells by patient-derived NK cells (in words) (PC3)	immune-mediated PC killing [2, 3] [%]	immune-mediated PC killing [2, 4] [%]	immune-mediated PC killing effect [2] [%]	killing of PCa cells by patient-derived NK cells (in words) (LNCaP)
CC(O)c1cc(C(=O)N[C@@H](C)Cn2ccc(-c3ccc(C#N)c(Cl)c3)n2)n[nH]1 (stereo partly shown) [darolutamide]	upregulation	increased	reduced	enhanced	41	36	36	enhanced
CNC(=O)c1ccc(N2C(=S)N(c3ccc(C#N)c(C(F)(F)F)c3)C(=O)C2(C)C)cc1F [enzalutamide]	upregulation	increased	reduced	enhanced	36	40	40	enhanced
